What was measured:
Type in all cases: in vivo
[1] = tested on: primary care patients with major depression disorder; test: 8-week, double-blind, randomised, placebo-controlled, flexible-dose clinical study
From the text: (§1) This has i.a. been found in the Chronic Mild Stress model (Wiliner P., Psychopharmachology 1997, 134, 319-329).
A total of 471 patients were randomised into the study. The all-patient-treated set comprised 469 patients and the full-analysis set comprised 468 patients.
There was an approximately 3 to 1 ratio of women to men in each treatment group, and almost all patients were Caucasian. The mean age was 43 years (SD 11). At baseline, the mean MADRS total score was approximately 29 for the treatment group, which signifies moderate to severely ill patients.

[2] = fixed dose studies (MADRS rating scale and Clinical Global Impression); conditions: escitalopram in a dose of 10 mg compared with citalopram 40 mg
[3] = tested on: Chronic Mild Stress model; test: Chronic Mild Stress model; conditions: animal models, compared with citalopram-racemate
From the text: as §1

[4] = pharmacological and clinical studies / animal models (summary statements)
From the text: This may be shown in functional in-vivo pharmacological models and studies of 5-HT-reuptake effect and or in behavior models, for example depression models.

With CN(C)CCC[C@@]1(c2ccc(F)cc2)OCc2cc(C#N)ccc21 [escitalopram, (S)-1-[3-(dimethylamino)propyl]-1-(4-fluorophenyl)-1,3-dihydro-5-isobenzofurancarbonitrile] the onset of effect ([1]; 10 mg escitalopram, 20 mg citalopram, versus placebo) was “showed effects after one week”, the “adjusted mean change in MADRS total score versus placebo (significance)” value ([1]; Week 1 (p=0.023) to Week 4 (p=0.002), observed cases) was “significantly superior therapeutic effect” and the “CGI improvement and severity subscale versus placebo” value ([1]; Week 4, last observation carried forward) was “statistically significantly superior to placebo”. For the same compound, the “adjusted mean change in MADRS total score versus placebo” value ([1]; Week 4, last observation carried forward, 10 mg escitalopram, 20 mg citalopram, escitalopram p=0.002, citalopram statistically insignificant) was 2.7 points, the “CGI improvement and severity subscale versus placebo” value ([1]; from Week 1 onwards (p<0.05), observed cases, 4-week period) was “significantly superior to placebo” and the “effect as determined by MADRS rating scale and Clinical Global Impression (severity and improvement)” value [2] was “at least same effect as citalopram in a dose of 40 mg”. For the same compound, the speed of response [3] was “faster response than citalopram-racemate”, the onset of action ([4]; animal models and clinical studies, compared with the racemate and other SSRIs) was “faster onset of action” and the “potency relative to the racemate” value ([4]; pharmacological and clinical studies) was “substantially more than two times as potent as the racemate”. For the same compound, the extent of response ([4]; various animal models) was “more full response”.

Reference: patent publication US20040192765A1 (H. Lundbeck A/S, priority 2001, published 2004)
